Experimental findings from ChEMBL document CHEMBL1151995, “Evaluation of tea polyphenols as anti-HIV agents” (Bioorg Med Chem Lett, 1996) are described below.

In brackets after ≈: the same amount, converted by molar mass.

For assay [1], the system named is Human immunodeficiency virus 1. Kind of assay: Inhibition of HIV-1 replication in H9 (human lymphoma) cells; No suppression. Type of assay: functional, organism-based.
Another assay concerns H9. The experiment in a line: Inhibition of uninfected H9 lymphocytic cell growth. As to conditions: Homo sapiens. The assay is classed as functional, cell-based.

The term IC50 denotes the concentration that gives 50% inhibition. Higher therefore signals weaker potency in that assay.

On to `O=C(O[C@@H]1Cc2c(O)cc(O)cc2O[C@@H]1c1cc(O)c(O)c(O)c1-c1c([C@H]2Oc3cc(O)cc(O)c3C[C@H]2O)cc(O)c(O)c1O)c1cc(O)c(O)c(O)c1` [2',2'-BISEPIGALLOCATECHIN MONOGALLATE], for which, in assay [1], the EC50 result is reported as “No effect”. The same molecule yielded an IC50 in the assay with H9 of 9.5 µg/mL (≈ 12.5 µM).
